No end group written: not given here.
Test system: TCRβ clonotypes in CD8+ T cell populations
Experiment: TCRβ CDR3 sequencing of neoantigen-specific CD8+ T cells, pre- and post-vaccine
Parameters: species or system human
Method: Short-term ex-vivo expanded neoantigen-specific T cells were purified to 97-99% purity by cell sorting in a Sony SY3200 BSC (Sony Biotechnology) fitted with a 100 um nozzle, at 30 psi, using 561 nm (585/40) and 642 nm (665/30) lasers and cell pellets were prepared. DNA isolation and TCRβ sequencing was performed by Adaptive Biotechnologies and The Genome Institute at Washington University. Sequencing was performed at either survey (for neoantigen-specific TCRβ reference libraries) or deep (for pre- and post-vaccine CD8+ T cell populations) level (Robins, H., et al., J. Immunol. Methods, 375, 14-19, 2012; Carlson, C. S., et al., Nat. Commun., 4, 2680, 2013). TCRβ V-, D-, J-genes of each CDR3 regions were defined using IMGT (ImMunoGeneTics)/Junctional algorithms and data uploaded into the ImmunoSeq Analyzer (Adaptive Biotechnologies) for analysis. Complete amino acid identity between the reference library and pre- and post-vaccine CD8 samples was required for assigning a TCRβ match. In the reference library, TCRβ clonotypes with frequencies above 0.1% (>100-fold sequencing depth) were set as a threshold for identification of neoantigen-specific TCRβ CDR3 sequences within pre- and post-vaccine CD8+ T cell populations.
Reference T cell receptor-β (TCRβ) complementarity-determining region 3 (CDR3) sequence libraries (shown schematically in FIG. 42, Tables 7-11) were generated from short-term expanded sorted neoantigen-specific T cells (97-99% dextramer-positive), in Tables 7-11, TCRBV, TCRBD and TCRBJ are shown according to consensus nomenclature and CDR3 sequence for each clonotype indicated. Read counts indicates the number of times a given CDR3 sequence was found in the short term ex-vivo expanded neoantigen population. TCRβ clonotypes with frequencies above 0.1% (>100-fold sequencing depth), in reference library, were set as a threshold for identification of neoantigenspecific TCRβ CDR3 sequences within CD8+ T cell populations isolated from PBMC obtained pre- and post-vaccination. […] Frequencies are shown as percent of total reads. […]

For IILVAVPHV, the “TCRβ clonotypes, post-vaccine” value (CD8+ T cells from PBMC after vaccination) was 12 clonotypes, the “TCRβ clonotypes, pre-vaccine” value (CD8+ T cells from PBMC before vaccination) was 2 clonotypes and the TCRβ families represented (post-vaccine clonotypes) was 8 TCRβ families.

Source: patent publication US20170202939A1, “PERSONALIZED CANCER VACCINES AND METHODS THEREFOR” (Washington University, priority 2014, published 2017)
